Experimental data from patent US20060161001A1, “Substituted heterocyclic compounds and methods of use” (Amgen Inc., priority 2004, published 2006).
pIC50: −log10 of the molar value.

The compounds below were run on LPS induced TNF release (assay: THP1 cell assay (LPS induced TNF release)). Settings: Homo sapiens, THP-1; THP1 cells, LPS induced TNF-α secretion, 3 h at 37° C.
Format: cell-based
Protocol: Lipopolysaccharide-Activated THP1 Cell TNF Production Assay
THP1 cells are resuspended in fresh THP1 media (RPMI 1640, 10% heat-inactivated FBS, 1XPGS, 1XNEAA, plus 30 μM OME) at a concentration of 1E6/mL. One hundred microliters of cells per well are plated in a polystyrene 96-well tissue culture. One microgram per mL of bacterial LPS is prepared in THP1 media and is transferred to the wells. Test compounds are dissolved in 100% DMSO and are serially diluted 3-fold in a polypropylene 96-well microtiter plate (drug plate). HI control and LO control wells contain only DMSO. One microliter of test compound from the drug plate followed by 10 μL of LPS are transferred to the cell plate. The treated cells are induced to synthesize and secrete TNF-α at 37° C. for 3 h. Forty microliters of conditioned media are transferred to a 96-well polypropylene plate containing 110 μL of ECL buffer (50 mM Tris-HCl pH 8.0, 100 mM NaCl, 0.05% Tween 20, 0.05% NaN3 and 1% FBS) supplemented with 0.44 nM MAB610 monoclonal Ab (R&D Systems), 0.34 nM ruthenylated AF210NA polyclonal Ab (R&D Systems) and 44 μg/mL sheep anti-mouse M280 Dynabeads (Dynal). After a 2 h incubation at RT with shaking, the reaction is read on the ECL M8 Instrument (IGEN Inc.). A low voltage is applied to the ruthenylated TNF-α immune complexes, which in the presence of TPA (the active component in Origlo), results in a cyclical redox reaction generating light at […]. The amount of secreted TNF-α in the presence of compound compared with that in the presence of DMSO vehicle alone (HI control) is calculated using the formula: % control (POC)=(cpd−average LO)/(average HI−average LO)*100. Data (consisting of POC and inhibitor concentration in μM) is fitted to a 4-parameter equation (y=A+((B−A)/(I+((x/C)ˆD))), where A is the minimum y (POC) value, B is the maximum y (POC), C is the x (cpd concentration) at the point of inflection and D is the slope factor) using a Levenburg-Marquardt non-linear regression algorithm.

Compound	pIC50
C[C@@H](Cc1cccc(C(C)(C)N)c1)Nc1nccc(N2CCCc3cnc(-c4ccccc4)cc32)n1 [Example 39, (S)-N-(1-(3-(2-Aminopropan-2-yl)phenyl)propan-2-yl)-4-(7-phenyl-3,4-dihydro-1,6-naphthyridin-1(2H)-yl) pyrimidin-2-amine]	≥ 4.70
CC(C)(Cc1ccc(F)cc1)Nc1nccc(N2CCCc3cnc(-c4ccccc4)cc32)n1 [Example 40, N-(1-(4-Fluorophenyl)-2-methylpropan-2-yl)-4-(7-phenyl-3,4-dihydro-1,6-naphthyridin-1(2H)-yl) pyrimidin-2-amine]	≥ 4.70
CC(C)(CN)Nc1nccc(N2CCCc3cnc(-c4ccccc4)cc32)n1 [Example 41, N-(1-Amino-2-methylpropan-2-yl)-4-(7-phenyl-3,4-dihydro-1,6-naphthyridin-1(2H)-yl)pyrimidin-2-amine]	≥ 4.70
CC(=O)NCC(C)(C)Nc1nccc(N2CCCc3cnc(-c4ccccc4)cc32)n1 [Example 42, N-(2-Methyl-2-(4-(7-phenyl-3,4-dihydro-1,6-naphthyridin-1(2H)-yl)pyrimidin-2-ylamino)propyl)acetamide]	≥ 4.70
CC(C)NCC(C)(C)Nc1nccc(N2CCCc3cnc(-c4ccccc4)cc32)n1 [Example 43, N-(1-(Isopropylamino)-2-methylpropan-2-yl)-4-(7-phenyl-3,4-dihydro-1,6-naphthyridin-1(2H)-yl) pyrimidin-2-amine]	≥ 4.70
c1ccc(CCNc2nccc(N3CCCc4ccc(-c5ccccc5)nc43)n2)cc1 [Example 47, N-Phenethyl-4-(7-phenyl-3,4-dihydro-1,8-naphthyridin-1(2H)-yl)pyrimidin-2-amine]	≥ 4.70
CC(Cc1cccc(CO)c1)Nc1nccc(N2CCCc3ccc(-c4ccccc4)nc32)n1 (stereo not drawn) [Example 48, (3-(2-(4-(7-Phenyl-3,4-dihydro-1,8-naphthyridin-1(2H)-yl)pyrimidin-2-yl-amino)propyl)phenyl)methanol]	≥ 4.70
CC(Cc1cccc(CN)c1)Nc1nccc(N2CCCc3ccc(-c4ccccc4)nc32)n1 (stereo not drawn) [Example 49, N-(1-(3-(Aminomethyl)phenyl)propan-2-yl)-4-(7-phenyl-3,4-dihydro-1,8-naphthyridin-1(2H)-yl)pyrimidin-2-amine]	≥ 4.70
c1ccc(-c2ccc3c(n2)N(c2ccnc(NCCc4cccnc4)n2)CCC3)cc1 [Example 50, 4-(7-Phenyl-3,4-dihydro-1,8-naphthyridin-1(2H)-yl)-N-(2-(pyridin-3-yl)ethyl)-pyrimidin-2-amine]	≥ 4.70
CN(C)CC(C)(C)CNc1nccc(N2CCCc3ccc(-c4ccccc4)nc32)n1 [Example 51, N-(3-(Dimethylamino)-2,2-dimethylpropyl)-4-(7-phenyl-3,4-dihydro-1,8-naphthyridin-1(2H)-yl)pyrimidin-2-amine]	≥ 4.70
CC(C)(C)CNc1nccc(N2CCCc3ccc(-c4ccccc4)nc32)n1 [Example 52, N-Neopentyl-4-(7-phenyl-3,4-dihydro-1,8-naphthyridin-1(2H)-yl)pyrimidin-2-amine]	≥ 4.70
CC(C)(N)CNc1nccc(N2CCCc3ccc(-c4ccccc4)nc32)n1 [Example 53, N-(2-Amino-2-methylpropyl)-4-(7-phenyl-3,4-dihydro-1,8-naphthyridin-1(2H)-yl)-pyrimidin-2-amine]	≥ 4.70
CC(C)(C)OC(=O)N1CCC(Nc2nccc(N3CCCc4ccc(-c5ccccc5)nc43)n2)CC1 [Example 54, tert-Butyl 4-(4-(7-phenyl-3,4-dihydro-1,8-naphthyridin-1(2H)-yl)pyrimidin-2-yl-amino)piperidine-1-carboxylate]	≥ 4.70
FC(F)(F)c1cc(N2CCCc3ccc(-c4ccccc4)nc32)nc(NCCc2ccccc2)n1 [Example 56, N-Phenethyl-4-(7-phenyl-3,4-dihydro-1,8-naphthyridin-1(2H)-yl)-6-(trifluoromethyl)pyrimidin-2-amine]	≥ 4.70
CC(Cc1cccc(CO)c1)Nc1nc(N2CCCc3ccc(-c4ccccc4)nc32)cc(C(F)(F)F)n1 (stereo not drawn) [Example 57, (3-(2-(4-(7-Phenyl-3,4-dihydro-1,8-naphthyridin-1(2H)-yl)-6-(trifluoromethyl)-pyrimidin-2-ylamino)propyl)phenyl)methanol]	≥ 4.70
CC(Cc1cccc(CN)c1)Nc1nc(N2CCCc3ccc(-c4ccccc4)nc32)cc(C(F)(F)F)n1 (stereo not drawn) [Example 58, N-(1-(3-(Aminomethyl)phenyl)propan-2-yl)-4-(7-phenyl-3,4-dihydro-1,8-naphthyridin-1(2H)-yl)-6-(trifluoromethyl)pyrimidin-2-amine]	≥ 4.70
Cc1cc(N2CCCc3ccc(-c4ccccc4)nc32)nc(F)n1 [Example 59, 1-(2-Fluoro-6-methylpyrimidin-4-yl)-7-phenyl-1,2,3,4-tetrahydro-1,8-naphthyridine]	≥ 4.70
Cc1cc(N2CCCc3ccc(-c4ccccc4)nc32)nc(NC2CCN(C(=O)OC(C)(C)C)CC2)n1 [Example 60, tert-Butyl 4-(4-methyl-6-(7-phenyl-3,4-dihydro-1,8-naphthyridin-1(2H)-yl)-pyrimidin-2-ylamino)piperidine-1-carboxylate]	≥ 4.70
Cc1cc(N2CCCc3ccc(-c4ccccc4)nc32)nc(N[C@@H](C)Cc2cccc([C@@H](C)NC(=O)OC(C)(C)C)c2)n1 [Example 61, tert-Butyl (R)-1-(3-((S)-2-(4-methyl-6-(7-phenyl-3,4-dihydro-1,8-naphthyridin-1 (2H)-yl)pyrimidin-2-ylamino)propyl)phenyl)ethylcarbamate]	≥ 4.70
Cc1cc(N2CCCc3ccc(-c4ccccc4)nc32)nc(N[C@@H](C)Cc2cccc([C@@H](C)N)c2)n1 [Example 62, N-((S)-1-(3-((R)-1-Aminoethyl)phenyl)propan-2-yl)-4-methyl-6-(7-phenyl-3,4-dihydro-1,8-naphthyridin-1(2H)-yl)pyrimidin-2-amine]	≥ 4.70
CCOC(=O)c1cc2c(nc1-c1ccccc1)N(c1ccnc(NCCc3ccccc3)n1)CCC2 [Example 66, Ethyl 8-(2-(Phenethylamino)pyrimidin-4-yl)-2-phenyl-5,6,7,8-tetrahydro-1,8-naphthyridine-3-carboxylate]	≥ 4.70
OCc1cc2c(nc1-c1ccccc1)N(c1ccnc(NCCc3ccccc3)n1)CCC2 [Example 67, (8-(2-(Phenethylamino)pyrimidin-4-yl)-2-phenyl-5,6,7,8-tetrahydro-1,8-naphthyridin-3-yl)methanol]	≥ 4.70
COCc1cc2c(nc1-c1ccccc1)N(c1ccnc(NCCc3ccccc3)n1)CCC2 [Example 68, 4-(6-(Methoxymethyl)-7-phenyl-3,4-dihydro-1,8-naphthyridin-1(2H)-yl)-N-phenethylpyrimidin-2-amine]	≥ 4.70
O=C(O)c1cc2c(nc1-c1ccccc1)N(c1ccnc(NCCc3ccccc3)n1)CCC2 [Example 69, 8-(2-(Phenethylamino)pyrimidin-4-yl)-2-phenyl-5,6,7,8-tetrahydro-1,8-naphthyridine-3-carboxylic acid]	≥ 4.70
CNCc1cc2c(nc1-c1ccccc1)N(c1ccnc(NCCc3ccccc3)n1)CCC2 [Example 70, 4-(6-((Methylamino)methyl)-7-phenyl-3,4-dihydro-1,8-naphthyridin-1(2H)-yl)-N-phenethylpyrimidin-2-amine]	≥ 4.70
CN(C)Cc1cc2c(nc1-c1ccccc1)N(c1ccnc(NCCc3ccccc3)n1)CCC2 [Example 71, 4-(6-((Dimethylamino)methyl)-7-phenyl-3,4-dihydro-1,8-naphthyridin-1(2H)-yl)-N-phenethylpyrimidin-2-amine]	≥ 4.70
CC(=O)c1cc2c(nc1-c1ccccc1)N(c1ccnc(NCCc3ccccc3)n1)CCC2 [Example 72, 1-(8-(2-(Phenethylamino)pyrimidin-4-yl)-2-phenyl-5,6,7,8-tetrahydro-1,8-naphthyridin-3-yl)ethanone]	≥ 4.70
CC(O)c1cc2c(nc1-c1ccccc1)N(c1ccnc(NCCc3ccccc3)n1)CCC2 (stereo not drawn) [Example 73, 1-(8-(2-(Phenethylamino)pyrimidin-4-yl)-2-phenyl-5,6,7,8-tetrahydro-1,8-naphthyridin-3-yl)ethanol]	≥ 4.70
CCOC(=O)c1cc2c(nc1-c1ccccc1)N(c1ccnc(NC3CCN(C(=O)OC(C)(C)C)CC3)n1)CCC2 [Example 74, Ethyl 8-(2-(1-(tert-butoxycarbonyl)piperidin-4-ylamino)pyrimidin-4-yl)-2-phenyl-5,6,7,8-tetrahydro-1,8-naphthyridine-3-carboxylate]	≥ 4.70
CCOC(=O)c1cc2c(nc1-c1ccccc1)N(c1ccnc(N[C@H]3CC[C@H](N)CC3)n1)CCC2 [Example 75, Ethyl 8-(2-((1R,4R)-4-aminocyclohexylamino)pyrimidin-4-yl)-2-phenyl-5,6,7,8-tetrahydro-1,8-naphthyridine-3-carboxylate]	≥ 4.70
